# Laboratory results taken from PubChem BioAssay AID328 (DTP/NCI, 2004).
# Several values for one entry are separate records, joined by “and”; a condition that tells them apart may be missing. Equal values may be shown once. Inconclusive results and toxic doses are left out.
# System: BDF1 mice, P388 leukemia ip, median survival T/C
# Assay: NCI In Vivo Anticancer Drug Screen. Data for tumor model P388 Leukemia (intraperitoneal) in B6D2F1 (BDF1) mice
# Settings: endpoint: median survival time, higher = longer survival
# How it was run: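 Mice carrying the transplantable tumour receive compound or vehicle. Survival is followed in each arm, and the treated measure is divided by the vehicle measure.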
# [1] = dose: 100.0 mg/kg/injection, schedule: Q01DX001 (ip), vehicle: Klucel (hydroxypropylcellulose) (HPC)
# [2] = dose: 200.0 mg/kg/injection, schedule: Q01DX001 (ip), vehicle: Klucel (hydroxypropylcellulose) (HPC)
# [3] = dose: 400.0 mg/kg/injection, schedule: Q01DX001 (ip), vehicle: Klucel (hydroxypropylcellulose) (HPC)
# [4] = dose: 50.0 mg/kg/injection, schedule: Q04DX003 (ip), vehicle: saline with Tween-80
# [5] = dose: 100.0 mg/kg/injection, schedule: Q04DX003 (ip), vehicle: saline with Tween-80
# [6] = dose: 200.0 mg/kg/injection, schedule: Q04DX003 (ip), vehicle: saline with Tween-80
# [7] = dose: 400.0 mg/kg/injection, schedule: Q04DX003 (ip), vehicle: saline with Tween-80
# [8] = dose: 50.0 mg/kg/injection, schedule: Q01DX009 (ip), vehicle: saline with Tween-80
# [9] = dose: 100.0 mg/kg/injection, schedule: Q01DX009 (ip), vehicle: saline with Tween-80
# [10] = dose: 200.0 mg/kg/injection, schedule: Q01DX009 (ip), vehicle: saline with Tween-80
# [11] = dose: 100.0 mg/kg/injection, schedule: Q04DX003 (ip), vehicle: saline
# [12] = dose: 200.0 mg/kg/injection, schedule: Q04DX003 (ip), vehicle: saline
# [13] = dose: 400.0 mg/kg/injection, schedule: Q04DX003 (ip), vehicle: saline
# [14] = dose: 400.0 mg/kg/injection, schedule: Q01DX009 (ip), vehicle: saline with Tween-80
structure (smiles),measurement,setting,value
COc1ccc(C=NCCN=Cc2ccc(OC)cc2)cc1,T/C,[1],109 % of control
same,T/C,[2],100 % of control
same,T/C,[3],95 % of control
COc1cccc2c1C(=O)c1c(O)c3c(c(O)c1C2=O)C[C@@](O)(C(=O)CO)C[C@@H]3OC1CC(NC(=O)C(F)(F)F)C(O)C(C)O1 (stereo partly drawn),T/C,"dose: 3.13 mg/kg/injection, schedule: Q04DX009 (ip), vehicle: other",113 % of control
same,T/C,"dose: 6.25 mg/kg/injection, schedule: Q04DX009 (ip), vehicle: other",121 % of control
same,T/C,"dose: 12.5 mg/kg/injection, schedule: Q04DX009 (ip), vehicle: other",123 % of control
Cc1sc2ncnc(N)c2c1C,T/C,[4],103 % of control
same,T/C,[5],105 % of control
same,T/C,[6],94 % of control
same,T/C,[7],105 % of control
O=C(O)c1oc2ccccc2c1CO,T/C,[8],99 % of control
same,T/C,[9],101 % of control
same,T/C,[10],105 % of control
CCOC(=O)C(C(=O)OCC)C(C)C,T/C,[11],105 % of control
same,T/C,[12],105 % of control
same,T/C,[13],115 % of control
O=C(CO)Nc1ccc(Br)cc1,T/C,"dose: 50.0 mg/kg/injection, schedule: Q01DX009 (ip), vehicle: Klucel (hydroxypropylcellulose) (HPC)",94 % of control
same,T/C,"dose: 100.0 mg/kg/injection, schedule: Q01DX009 (ip), vehicle: Klucel (hydroxypropylcellulose) (HPC)",104 % of control
same,T/C,"dose: 200.0 mg/kg/injection, schedule: Q01DX009 (ip), vehicle: Klucel (hydroxypropylcellulose) (HPC)",86 % of control
c1ccc(-c2csc3c4ccccc4c4ccccc4[n+]23)cc1,T/C,"dose: 0.5 mg/kg/injection, schedule: Q01DX009 (ip), vehicle: saline",100 % of control
same,T/C,"dose: 1.0 mg/kg/injection, schedule: Q01DX009 (ip), vehicle: saline",104 % of control
same,T/C,"dose: 2.0 mg/kg/injection, schedule: Q01DX009 (ip), vehicle: saline",118 % of control
same,T/C,"dose: 4.0 mg/kg/injection, schedule: Q01DX009 (ip), vehicle: saline",113 % of control
same,T/C,"dose: 8.0 mg/kg/injection, schedule: Q01DX009 (ip), vehicle: saline",100 % of control
CC[C@]1(O)CC(OC2CC(N(C)C)C(O)C(C)O2)c2c(cc3c(c2O)C(=O)c2c(O)cccc2C3=O)[C@@H]1C(=O)OC (stereo partly drawn),T/C,"dose: 1.25 mg/kg/injection, schedule: Q01DX001 (ip), vehicle: saline",104 % of control and 110 % of control
same,T/C,"dose: 2.5 mg/kg/injection, schedule: Q01DX001 (ip), vehicle: saline",100 % of control and 109 % of control
same,T/C,"dose: 5.0 mg/kg/injection, schedule: Q01DX001 (ip), vehicle: saline",100 % of control
same,T/C,"dose: 10.0 mg/kg/injection, schedule: Q01DX001 (ip), vehicle: saline",100 % of control
Cc1ccc(C(=O)/C=C/N2CCN(c3ccccc3)CC2)c(C)c1,T/C,[5],100 % of control
same,T/C,[6],100 % of control
same,T/C,[7],90 % of control
CCCNC(=O)Nc1ccc(C)c(Cl)c1,T/C,[5],104 % of control
same,T/C,[6],100 % of control
same,T/C,[7],95 % of control
CCCC(=O)OCc1ccc(Cl)cc1Cl,T/C,[5],109 % of control
same,T/C,[7],113 % of control
CC(C)CCc1cc(O)c(CCC(C)C)cc1O,T/C,"dose: 0.78 mg/kg/injection, schedule: Q01DX009 (ip), vehicle: saline with Tween-80",101 % of control
same,T/C,"dose: 1.56 mg/kg/injection, schedule: Q01DX009 (ip), vehicle: saline with Tween-80",102 % of control
same,T/C,"dose: 3.12 mg/kg/injection, schedule: Q01DX009 (ip), vehicle: saline with Tween-80",102 % of control
same,T/C,"dose: 6.25 mg/kg/injection, schedule: Q01DX009 (ip), vehicle: saline with Tween-80",104 % of control
CN(C)CCCNC1=CC(=O)c2ccccc2C1=O,T/C,"dose: 1.56 mg/kg/injection, schedule: Q04DX003 (ip), vehicle: water",108 % of control
same,T/C,"dose: 3.12 mg/kg/injection, schedule: Q04DX003 (ip), vehicle: water",97 % of control and 98 % of control
same,T/C,"dose: 6.25 mg/kg/injection, schedule: Q01DX009 (ip), vehicle: water",99 % of control
same,T/C,"dose: 6.25 mg/kg/injection, schedule: Q04DX003 (ip), vehicle: water",91 % of control and 101 % of control
same,T/C,"dose: 12.5 mg/kg/injection, schedule: Q01DX009 (ip), vehicle: water",103 % of control
same,T/C,"dose: 12.5 mg/kg/injection, schedule: Q04DX003 (ip), vehicle: water",97 % of control and 102 % of control
same,T/C,"dose: 25.0 mg/kg/injection, schedule: Q01DX009 (ip), vehicle: water",110 % of control
same,T/C,"dose: 25.0 mg/kg/injection, schedule: Q04DX003 (ip), vehicle: water",103 % of control and 119 % of control
same,T/C,"dose: 50.0 mg/kg/injection, schedule: Q01DX009 (ip), vehicle: water",94 % of control
same,T/C,"dose: 50.0 mg/kg/injection, schedule: Q04DX003 (ip), vehicle: water",91 % of control
same,T/C,"dose: 100.0 mg/kg/injection, schedule: Q01DX009 (ip), vehicle: water",103 % of control
O=[N+]([O-])c1ccc(N2CC2)c2c1no[n+]2[O-],T/C,"dose: 15.0 mg/kg/injection, schedule: Q04DX003 (ip), vehicle: saline with Tween-80",109 % of control
CCOC(=O)CC(C)(N)NC(N)=O (stereo not drawn),T/C,"dose: 100.0 mg/kg/injection, schedule: Q01DX001 (ip), vehicle: saline with Tween-80",110 % of control
same,T/C,[9],115 % of control
same,T/C,"dose: 100.0 mg/kg/injection, schedule: Q04DX003 (ip), vehicle: alcohol",110 % of control
same,T/C,"dose: 200.0 mg/kg/injection, schedule: Q01DX001 (ip), vehicle: saline with Tween-80",95 % of control
same,T/C,[10],105 % of control
same,T/C,"dose: 200.0 mg/kg/injection, schedule: Q04DX003 (ip), vehicle: alcohol",105 % of control
same,T/C,"dose: 400.0 mg/kg/injection, schedule: Q01DX001 (ip), vehicle: saline with Tween-80",110 % of control
same,T/C,[14],105 % of control
same,T/C,"dose: 400.0 mg/kg/injection, schedule: Q04DX003 (ip), vehicle: alcohol",110 % of control
COc1ccc2c3c1OC1CC(O)C=CC31CCN(C)C2 (stereo not drawn),T/C,"dose: 5.0 mg/kg/injection, schedule: Q01DX010 (ip), vehicle: carboxymethylcellulose (CMC)",100 % of control
CCOC(=O)C(CC(OCC)OCC)C(=O)OCC,T/C,[9],100 % of control
same,T/C,[5],104 % of control
same,T/C,[10],91 % of control
same,T/C,[6],113 % of control
same,T/C,[14],122 % of control
same,T/C,[7],113 % of control
O=C1C=CC(=O)N1c1ccc(Br)cc1Cl,T/C,"dose: 1.0 mg/kg/injection, schedule: Q04DX003 (ip), vehicle: saline",155 % of control
same,T/C,"dose: 2.0 mg/kg/injection, schedule: Q04DX003 (ip), vehicle: saline",122 % of control
O=C(Cl)C1CCCCC1,T/C,[8],100 % of control
same,T/C,[9],104 % of control
Cc1onc(-c2ccccc2)c1C(=O)N1CCCN2C(=O)c3ccccc3C21 (stereo not drawn),T/C,[10],98 % of control
Nc1nc(C=O)c(-c2cccc3ccccc23)c(=O)[nH]1,T/C,[5],113 % of control
same,T/C,[7],150 % of control
CCN(CC)CCOc1cccc(C)c1C,T/C,"dose: 25.0 mg/kg/injection, schedule: Q04DX003 (ip), vehicle: saline with Tween-80",96 % of control
same,T/C,[4],100 % of control
same,T/C,[5],116 % of control
Cc1ccc(NC(=O)CC#N)c(C)c1,T/C,[11],109 % of control
same,T/C,[12],100 % of control
same,T/C,[13],92 % of control
CCN(CC)CCCC(C)Nc1ccnc2cc(Cl)cnc12 (stereo not drawn) (tested in a mixture with another compound),T/C,[8],107 % of control
same,T/C,[9],114 % of control
same,T/C,[10],98 % of control
NC(=S)NCc1ccccc1C(O)c1ccccc1 (stereo not drawn),T/C,[8],94 % of control
same,T/C,[9],91 % of control
same,T/C,[10],101 % of control
O=C1OC(c2ccc(Cl)cc2)=N/C1=C\c1ccccc1,T/C,[1],95 % of control
same,T/C,"dose: 100.0 mg/kg/injection, schedule: Q04DX003 (ip), vehicle: Klucel (hydroxypropylcellulose) (HPC)",86 % of control
same,T/C,[2],95 % of control
same,T/C,"dose: 200.0 mg/kg/injection, schedule: Q04DX003 (ip), vehicle: Klucel (hydroxypropylcellulose) (HPC)",90 % of control
same,T/C,[3],100 % of control
same,T/C,"dose: 400.0 mg/kg/injection, schedule: Q04DX003 (ip), vehicle: Klucel (hydroxypropylcellulose) (HPC)",95 % of control
